Assay results as given in article PMC11873638 (Acta Pharmaceutica Sinica. B, 2024).

What was measured:
[1] = tested on: CYP1A1 in Caco2, BEAS-2B, H292, and HepG2 cells; assay: Functional imaging of CYP1A1 in living cells; type: cell-based, human; conditions: 100 μmol/L, 1 h pre-incubation
[2] = tested on: Caco2, BEAS-2B, H292, and HepG2 cells; assay: Cytotoxicity assays of probe, metabolite and inhibitor; type: cell-based, human; conditions: all tested mammalian cells
[3] = molecular target: T1, HDB-EtCl O-dechloroethylation (CYP1A1) in human liver microsomes (Homo sapiens, UniProt P04798); assay: Chemical inhibition assay of HDB-EtCl O-dechloroethylation in HLMs; conditions: ABT 500 μmol/L, resveratrol 100 μmol/L, others 1-10 μmol/L
T1 sequence (P04798 1-512): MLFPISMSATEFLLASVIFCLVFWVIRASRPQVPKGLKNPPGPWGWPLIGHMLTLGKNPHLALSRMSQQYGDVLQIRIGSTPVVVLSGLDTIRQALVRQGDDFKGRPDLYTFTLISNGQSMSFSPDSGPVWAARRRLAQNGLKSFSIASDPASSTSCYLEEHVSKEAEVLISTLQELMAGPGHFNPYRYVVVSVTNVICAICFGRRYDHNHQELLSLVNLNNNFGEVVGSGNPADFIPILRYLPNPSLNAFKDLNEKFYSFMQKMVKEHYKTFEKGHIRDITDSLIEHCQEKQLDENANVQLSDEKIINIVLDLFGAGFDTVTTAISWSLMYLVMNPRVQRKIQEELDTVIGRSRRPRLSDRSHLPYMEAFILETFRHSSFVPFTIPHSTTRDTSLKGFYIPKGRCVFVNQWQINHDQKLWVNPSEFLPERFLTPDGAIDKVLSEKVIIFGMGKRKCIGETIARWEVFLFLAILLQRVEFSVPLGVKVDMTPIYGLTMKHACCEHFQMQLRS

LPS-induced ALI mice = assay: LPS-induced acute lung injury in mice; type: in vivo, mouse
[4] = tested on: DSS-induced ulcerative colitis mice; assay: DSS-induced ulcerative colitis in mice; type: in vivo, mouse

**Q.** Which results are given for Oc1ccc(/C=C/c2cc(O)cc(O)c2)cc1 [resveratrol]?
**A.** blocking of HDB-EtCl red-channel fluorescent signals in cells [1]: completely blocked; cytotoxicity [2]: weak cytotoxicity; inhibition of HDB-EtCl O-dechloroethylation in HLMs [3]: completely blocked

**Q.** C[C@@H]1C[C@H]2[C@@H]3CCC4=CC(=O)C=C[C@]4(C)[C@@]3(F)[C@@H](O)C[C@]2(C)[C@@]1(O)C(=O)CO [Dex, dexamethasone] was tested. Which lung injury scores (LPS-induced ALI mice; LAC-7 20 and 40 mg/kg, Dex 5 mg/kg) did it give?
**A.** significantly reduce

**Q.** And the “Occludin immunofluorescence intensity in lung” value (LPS-induced ALI mice; mouse, in vivo)?
**A.** enhanced

**Q.** And the “ZO-1 immunofluorescence intensity in lung” value (LPS-induced ALI mice; oral administration)?
**A.** significantly increased

**Q.** What about the “total cell count in BALF” value (LPS-induced ALI mice; vs LPS-induced ALI mice) of the same molecule?
**A.** significantly decreased

**Q.** For O=C(O)c1cc(/N=N/c2ccc(S(=O)(=O)Nc3ccccn3)cc2)ccc1O [SASP, salazosulfapyridine], which “elevated IL-1β, TNF-α, IL-6, IFN-γ in intestinal tissues” value ([4]; ELISA, oral administration) is on record?
**A.** effectively mitigated

**Q.** And the “colon histopathological abnormities (H&E)” value ([4]; LAC-7 20 and 40 mg/kg, SASP 200 mg/kg)?
**A.** largely restored

**Q.** And the “shortening of colon length by DSS” value ([4]; LAC-7 20 and 40 mg/kg, SASP 200 mg/kg, oral)?
**A.** significantly reversed

**Q.** What about the “expression of tight junction proteins Occludin and ZO-1 in intestine” value ([4]; immunofluorescence) of the same molecule?
**A.** significantly increased

**Q.** For Nn1nnc2ccccc21 [ABT, 1-aminobenzotriazole], which “inhibition of HDB-EtCl O-dechloroethylation in HLMs” value [3] is on record?
**A.** completely blocked
